Assay results reported in patent publication US20140357512A1, “HISTONE DEACETYLASE (HDAC) BIOMARKERS IN MULTIPLE MYELOMA” (priority 2013, published 2014).

Test system: human myeloma cell line MM.1S
Experiment: SILAC acetylated-lysine peptide profiling, HDAC inhibitor vs DMSO (light/heavy ratio)
Format: cell-based
Source text: An embodiment of the invention comprises utilizing the SILAC method in order to quantitate changes in protein expression between two or more populations of cells. The SILAC method is a technique based on mass spectrometry that detects differences in protein abundance among samples using non-radioactive isotopic labeling. The SILAC method is known in the art, and described in detail in Ong et al., “Stable Isotope Labeling by Amino Acids in Cell Culture, SILAC, as a Simple and Accurate Approach to Expression Proteomics”, Molecular & Cellular Proteomics, vol. 1, pp. 376-386 (2002), which is incorporated herein by reference in its entirety.
Briefly, the SILAC method involves growing two populations of cells in cell culture. The first population of cells is grown in growth media containing normal amino acids (“normal media”). The second population of cells is grown in media lacking a standard essential amino acid (such as lysine), but is then supplemented with a non-radioactive, isotopically labeled form of that essential amino acid (such as lysine labeled with ^13C atoms, rather than normal ^12C atoms), which is called “heavy media”. When the two populations of cells are each growing in the medium, they incorporate the amino acids into all of their proteins. The growth of cells maintained in the heavy media is no different from that in normal media. All peptides containing the heavy amino acids are heavier than their normal counterparts. The cells from each of the two populations of cells are lysed. The lysates from each of the two cell populations are then combined. The combined cell lysates are then analyzed by mass spectrometry. Pairs of chemically identical peptides of different stable isotope composition can be differentiated in a mass spectrometer due to their difference in mass. The ratio of peak intensities in the mass spectrum for such peptide pairs reflects the abundance ratio for the two proteins.
This example describes SILAC studies that were performed to compare the effects of three different HDAC inhibitors (Compound A, Compound B, and tubastatin A) to a control on a human multiple myeloma cell line. The HDAC inhibitors were also compared amongst themselves to determine differences in their effects.
A human myeloma cell line MM.1S was grown using either ^12C (light) or ^13C (heavy) lysine containing culture medium. The “heavy” cells were treated with DMSO as the control, and the “light” cells were treated with a single HDAC inhibitor at 37° C. for 6 hours. The heavy and light cells were lysed, and the lysates were mixed in 1:1 ratio and digested with the protease trypsin. The acetylated lysine containing peptides (due to the action of the HDAC inhibitor) in the digested peptide pool were captured by a non-specific anti-acetylated lysine antibody cocktail (the antibodies identify both light and heavy acetylated peptides), and subjected to mass spectrometry analysis in order to identify thousands of individual peptides.
Thousands of peptides were identified in pairs (^12C and ^13C) due to their known mass differences. The amino acid sequence and quantitative ratio (Light/Heavy) of a given peptide in two differentially treated cell lysates were then determined and annotated with their possible protein (gene) sources.
As stated above, three HDAC inhibitors (Compound A, Compound B, and Tubastatin A) were used. Thus, the SILAC method was performed three times, with a different HDAC inhibitor compared to a control each time. Accordingly, there are three pairs of quantitative data in the table below, i.e., Compound A:DMSO, Compound B:DMSO, and Tubastatin A:DMSO. A cut-off of 1.30 fold of change (increase or decrease) was then used to determine “changed” or “+” in the table, and any peptides with a fold of change less than 1.3 fold were determined to be “unchanged” or “0” in the table. Those peptides that were not identified were marked as “NA” in the table. […]

SMILES: O=C(NO)c1cnc(NC2(c3cccc(F)c3)CCCCC2)nc1 [Compound B, 2-((1-(3-fluorophenyl)cyclohexyl)amino)-N-hydroxypyrimidine-5-carboxamide]
- L/H ratio of acetylated peptide […](ac)SHR (SEQ ID NO: 56) (IGLV2-14, IGLC2 [208], log 2 scale, drug vs DMSO): 0.00
- light to heavy ratio (L/H ratio) of acetylated peptide, log 2 scale (IGQGYLIK(ac)DGK (SEQ ID NO: 249), 60S ribosomal protein L3 [294], SNORD43, RPL3): 0.00
- L/H ratio of acetylated peptide (IIWHK(ac)FK (SEQ ID NO: 419), Isoform 1 of 39S ribosomal protein L47 mitochondrial [180], MRPL47): −0.73 log 2
- light to heavy ratio (L/H ratio) of acetylated peptide, log 2 scale (IMK(ac)DLDQCR (SEQ ID NO: 217), Protein S100-A10 [57], S100A10): 0.00
- L/H ratio of acetylated peptide (IMK(ac)SEVLR (SEQ ID NO: 434), 26S protease regulatory subunit 6A [56], PSMC3): 0.41 log 2
- L/H ratio of acetylated peptide (IMQK(ac)YGFR (SEQ ID NO: 440), Splicing factor 45 [245], RBM17): −0.50 log 2
- light to heavy ratio (L/H ratio) of acetylated peptide, log 2 scale (IQDK(ac)EGIPPDQQR (SEQ ID NO: 212), Ubiquitin-40S ribosomal protein S27a [33], RPS27A): 0.00
- L/H ratio of acetylated peptide (IQFK(ac)QDDGTGPEK (SEQ ID NO: 412), Isoform 1 of Far upstream element-binding protein 2 [359], KHSRP): 0.61 log 2
- light to heavy ratio (L/H ratio) of acetylated peptide, log 2 scale (ISK(ac)EVLAGR (SEQ ID NO: 167), Isoform Short of Heterogeneous nuclear ribonucleoprotein U [417], HNRNPU): 0.00
- L/H ratio of acetylated peptide (IYHPNVDK(ac)LGR (SEQ ID NO: 462), Ubiquitin-conjugating enzyme E2 N [82], UBE2N): −0.70 log 2
- light to heavy ratio (L/H ratio), log 2 scale, acetylated peptide LMK(ac)ICMNEDPAK (SEQ ID NO: 800) (Integrin-linked protein kinase [426], gene ILK, drug:DMSO): 0.00
- light to heavy ratio (L/H ratio) of acetylated peptide HAHGDQYK(ac)ATDFVADR (SEQ ID NO: 574) (Isocitrate dehydrogenase [NADP] mitochondrial [180], gene IDH2, inhibitor:DMSO): 0.00 log 2
- light to heavy ratio (L/H ratio) of acetylated peptide AGTFK(ac)MVFTPK (SEQ ID NO: 606) (Isocitrate dehydrogenase [NADP] mitochondrial [193], gene IDH2, inhibitor:DMSO): 0.00 log 2
- light to heavy ratio (L/H ratio) of acetylated peptide TDFDKNK(ac)IWYEHR (SEQ ID NO: 555) (Isocitrate dehydrogenase [NADP] mitochondrial [282], gene IDH2, inhibitor:DMSO): 0.00 log 2
- light to heavy ratio (L/H ratio) of acetylated peptide AVLIDK(ac)DQSPK (SEQ ID NO: 577) (Isoform 1 of 3-hydroxyisobutyryl-CoA hydrolase mitochondrial [353], gene HIBCH, inhibitor:DMSO): 0.00 log 2
- light to heavy ratio (L/H ratio) of acetylated peptide […](ac)VVQER (SEQ ID NO: 318) (Isoform 1 of 39S ribosomal protein L47 mitochondrial [144], MRPL47, drug:DMSO): 0.00 log 2
- light to heavy ratio (L/H ratio) of acetylated peptide ATVPK(ac)TEIR (SEQ ID NO: 272) (Isoform 1 of 40S ribosomal protein S24 [37], RPS24, drug:DMSO): 0.00 log 2
- light to heavy ratio (L/H ratio) of acetylated peptide ISK(ac)EEAMR (SEQ ID NO: 299) (Isoform 1 of 60S ribosomal protein L11 [159], RPL11, drug:DMSO): 0.00 log 2
- light to heavy ratio (L/H ratio) of acetylated peptide RPEILK(ac)QEIK (SEQ ID NO: 359) (Isoform 1 of AP-2 complex subunit beta [318], AP2B1, drug:DMSO): 0.57 log 2
- light to heavy ratio (L/H ratio) of acetylated peptide […](ac)ANVAK (SEQ ID NO: 364) (Isoform 1 of ATP synthase subunit d mitochondrial [58], ATP5H, drug:DMSO): 0.48 log 2
- light to heavy ratio (L/H ratio) of acetylated peptide VPVPEDK(ac)[…] (SEQ ID NO: 290) (Isoform 1 of ATP synthase subunit d mitochondrial [85], ATP5H, drug:DMSO): 0.00 log 2
- light to heavy ratio (L/H ratio) of acetylated peptide GHCPPAPAK(ac)PMHPENK(ac)LTNHGK (SEQ ID NO: 366) (Isoform 1 of B-cell CLL/lymphoma 9-like protein [36:43], BCL9L, drug:DMSO): 0.63 log 2
- light to heavy ratio (L/H ratio) of acetylated peptide VWNYK(ac)LR (SEQ ID NO: 593) (Isoform 1 of Coatomer subunit alpha [81], gene COPA, inhibitor:DMSO): 0.00 log 2
- light to heavy ratio (L/H ratio) of acetylated peptide SLLK(ac)PFCAALLK (SEQ ID NO: 329) (Isoform 1 of Cytoskeleton-associated protein 5 [438], CKAP5, drug:DMSO): 0.48 log 2
- light to heavy ratio (L/H ratio) of acetylated peptide ELEK(ac)VCNPIITK (SEQ ID NO: 612) (Isoform 1 of Heat shock cognate 71 kDa protein [601], gene HSPA8, inhibitor:DMSO): 0.00 log 2
- light to heavy ratio (L/H ratio) of acetylated peptide DVSYQGGK(ac)SIK (SEQ ID NO: 571) (Isoform 1 of Histone-lysine N-methyltransferase MLL3 [758], gene MLL3, inhibitor:DMSO): 0.00 log 2
- light to heavy ratio (L/H ratio) of acetylated peptide TLVLSDK(ac)HSPQK (SEQ ID NO: 523) (Isoform 1 of Histone-lysine N-methyltransferase MLL3 [2809], gene MLL3, inhibitor:DMSO): 0.00 log 2
- light to heavy ratio (L/H ratio) of acetylated peptide LVAENK(ac)FGK (SEQ ID NO: 296) (Isoform 1 of Hydroxyacyl-coenzyme A dehydrogenase mitochondrial [301], HADH, drug:DMSO): 0.00 log 2
- light to heavy ratio (L/H ratio) of acetylated peptide K(ac)[…] (SEQ ID NO: 316) (Isoform 1 of L-lactate dehydrogenase A chain [318], LDHA, drug:DMSO): 0.00 log 2
- light to heavy ratio (L/H ratio) of acetylated peptide INK(ac)ALDK (SEQ ID NO: 344) (Isoform 1 of Myosin-9 [435], MYH9, drug:DMSO): 0.43 log 2
- light to heavy ratio (L/H ratio) of acetylated peptide FYK(ac)[…] (SEQ ID NO: 596) (Isoform 1 of N-alpha-acetyltransferase 50 NatE catalytic subunit [37], gene NAA50, inhibitor:DMSO): 0.00 log 2
- light to heavy ratio (L/H ratio), log 2 scale, acetylated peptide […](ac)SK (SEQ ID NO: 767) (Isoform 1 of Peripherin [288], gene PRPH, drug:DMSO): 0.00
